Values quoted from earlier work as cited in patent US5418161A (The Chinese University of Hong Kong, priority 1993, dated 1995).

solubility in water: soluble
SMILES: O=C1/C(=C2\Nc3ccc(S(=O)(=O)O)cc3C2=O)Nc2ccc(S(=O)(=O)O)cc21 [indigo carmine]
